Experimental data reported in PubChem BioAssay (NCI).
Where “and” joins values, the source holds several entries; their conditions need not be identical. Identical values can stand only once.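 Results reflect a 48-hour exposure of cells in 96-well plates to compound at five concentrations. At the GI50, growth is halved. The concentration for full growth arrest is given as TGI.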

Tests used:
Assay in all cases: NCI-60 cell line screen, 48 h
A549 NSCLC = system: A549 NSCLC
DU-145 prostate = system: DU-145 prostate
NCI-H226 lung = system: NCI-H226 lung
NCI/ADR-RES ovarian = system: NCI/ADR-RES ovarian
PC-3 prostate = system: PC-3 prostate
SF-295 CNS = system: SF-295 CNS
SK-MEL-28 melanoma = system: SK-MEL-28 melanoma
SK-MEL-5 melanoma = system: SK-MEL-5 melanoma
SR leukemia = system: SR leukemia
UO-31 renal = system: UO-31 renal

Compound	TGI (A549 NSCLC) [µM]	TGI (DU-145 prostate) [µM]	TGI (NCI-H226 lung) [µM]	TGI (NCI/ADR-RES ovarian) [µM]	TGI (PC-3 prostate) [µM]	TGI (SF-295 CNS) [µM]	TGI (SK-MEL-28 melanoma) [µM]	TGI (SK-MEL-5 melanoma)	TGI (SR leukemia) [µM]	TGI (UO-31 renal) [µM]	GI50 (A549 NSCLC)	GI50 (DU-145 prostate) [µM]	GI50 (NCI-H226 lung)	GI50 (NCI/ADR-RES ovarian) [µM]	GI50 (PC-3 prostate)	GI50 (SF-295 CNS) [µM]	GI50 (SK-MEL-28 melanoma)	GI50 (SK-MEL-5 melanoma) [µM]	GI50 (SR leukemia) [µM]	GI50 (UO-31 renal) [µM]
O=c1c2ccccc2nc(-c2ccccc2)n1O	> 100	> 100	> 100	> 100	> 100	> 100	> 100	> 100 µM	> 100	> 100	–	–	–	–	–	–	–	–	–	–
CCc1c(O)c2c(c(O)c1C(C)=O)C(=O)c1c(cc(O)c(C(=O)O)c1C(=O)O)C2=O	> 100	> 100	> 100	> 100	> 100	> 100	> 100	> 100 µM	> 100	> 100	–	–	–	–	–	–	–	–	–	–
O=S(=O)(O)/C(=C\c1ccccc1)c1ccccc1 (tested in a mixture with another compound)	> 100	> 100	> 100	> 100	> 100	> 100	> 100	> 100 µM	> 100	> 100	–	–	–	–	–	–	–	–	–	–
COc1ccc(-c2nnc(N3CCN(C(=O)CN4CCN(c5ccc(Cl)cc5)CC4)CC3)nc2-c2ccc(OC)cc2)cc1	> 100	> 100	> 100	> 100	> 100	> 100	> 100	> 100 µM	> 100	> 100	27.4 µM	> 100	46.8 µM	20.7	9.58 µM	49.4	> 100 µM	7.91	31.5	6.92
Cc1cc(C)cc(Nc2ccc([N+](=O)[O-])c(NCCN3CCOCC3)n2)c1	> 100	> 100	> 100	–	> 100	25.8	> 100	0.0332 µM and 0.256 µM	> 100	> 100	0.00286 µM and 0.02 µM	–	0.0365 µM and 0.0614 µM	0.000646	0.00177 µM and 0.0106 µM	0.000446	0.672 µM and 2.75 µM	0.00082	–	–
O=C(Nc1ccccc1O)c1ccc(CNC(=O)c2sccc2Nc2ccnc(C(F)(F)F)c2)cc1	28.2	21	45	46.9	36.8	21.8	46.3	4.7 µM	61.4	15.9	8.68 µM	6.1	8.07 µM	4.67	4.56 µM	8.33	5.57 µM	1.94	4.19	2.82
COc1ccc(Cl)cc1NC(=O)c1cccc([N+](=O)[O-])c1O	45.2	> 100	64.9	64.4	> 100	55.3	> 91.4	14.7 µM	> 76.1	39.8	–	–	–	–	–	–	–	–	–	–
O=C(O)c1cc(Cc2ccc(O)c(C(=O)O)c2)ccc1O (tested in a mixture with another compound)	28	27.8	23.3	21	19.2	2.9	26.8	19.8 µM	8.67	19.9	9.82 µM	12	7.29 µM	6.48	3.58 µM	0.592	10.1 µM	4.9	1.41	3.99
C#Cc1cccc(Oc2ccc(NC(=O)CCl)cc2)c1	> 82.5	> 82.5	> 82.5	> 82.5	> 82.5	> 82.5	> 82.5	> 82.5 µM	> 82.5	> 82.5	> 82.5 µM	> 82.5	> 82.5 µM	> 82.5	> 82.5 µM	> 82.5	> 82.5 µM	33.6	11.5	> 82.5
COc1ccc(CC(NC(=O)[C@H](C)NC(=O)CN2CCOCC2)C(=O)N[C@@H](Cc2ccccc2)C(=O)[C@@]2(C)CO2)cc1 (stereo not given in full)	> 22.9	5.71	0.725	> 100	0.631	0.587	0.586	0.379 µM	–	15.2	0.461 µM	0.437	0.246 µM	19.8	0.229 µM	0.185	0.215 µM	0.177	0.064	3.2
CCCCCCCCCCCCCC(=O)C(C)N (stereo not given)	22.5	7.35	44.3	29.4	6.05	10	32.5	32.2 µM	8.47	24.2	8.94 µM	2.59	21.8 µM	13.7	2.64 µM	2.88	16.8 µM	17.9	2.68	10.5
COc1cc(C2=NN(c3ccc(S(N)(=O)=O)cc3)C(c3ccc(Cl)cc3)C2)cc(OC)c1OC (stereo not given)	> 100	> 100	> 100	> 100	> 100	6.55	> 100	18 µM	> 100	> 100	4 µM	9.78	7.25 µM	3.76	3.05 µM	2.53	3.78 µM	3.35	4.37	2.5
NCCP(=O)(O)O	> 100	> 100	> 100	> 100	> 100	> 100	> 100	> 100 µM	> 100	> 100	–	–	–	–	–	–	–	–	–	–
COC(=O)C1(C2CC/C(C)=C/CC/C(C)=C/CC[C@@]3(C)O[C@@H]3C2)CC1 (stereo not given in full)	> 80.3	> 100	> 100	> 100	> 100	> 100	> 100	> 100 µM	> 51.9	> 56.3	29 µM	33.6	> 72.2 µM	> 55	36.5 µM	> 60.4	> 100 µM	56.1	12.4	26.6
